Data from PubChem BioAssay AID1053144 (Broad Institute, 2014).

Tested on: NPC TCF/LEF luciferase reporter, Wnt3a EC25, 24 h
Assay: TCF/LEF reporter activation in neural progenitors – cell-based, iPS-derived NPC, luciferase, Wnt3a, cherry-pick, dose response (AID 1053144);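 also: Wnt3a stimulus is conditioned medium from Wnt3a-transfected mouse L cells at 5% in well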

Structure (SMILES)	AC30
CCOC(=O)c1c(Nc2ccc(OC)cc2)n[nH]c1C	11.4 µM
O=C(Nc1nc2cc3c(cc2s1)OCCO3)c1ccc([N+](=O)[O-])o1	9.12 µM
C=CCNC(=O)c1ccc2c3n(nc2c1)-c1ccc(Cl)cc1CO3	9.82 µM
Cc1cc(-c2nc3ccccc3c(=O)o2)ccc1[N+](=O)[O-]	16.2 µM
CC1(C)CC(=O)/C(=N/Nc2ccc(Cl)cc2)CO1	4.78 µM
Clc1ccc(SCc2cn3ccsc3n2)cc1	8.8 µM
Cc1ccc2oc(-c3cccc(NC(=O)c4ccccn4)c3)nc2c1	10.9 µM
Nc1ccccc1C(=O)/C=C/c1ccc2c(c1)OCO2	2.2 µM
O=C(c1cccs1)c1coc2ccc(O)cc12	15 µM
O=C(c1cc(-c2cccc(O)c2)on1)N1CCCCCC1	4.78 µM
Fc1ccc2nc3[nH]c4ccccc4c3nc2c1	8.76 µM
COc1ccc(C(=O)O/N=C(\N)c2ccc(Cl)cc2)cc1	9.22 µM
COc1cccc(/C=C2\N=C3CCCCCN3C2=O)c1	16.1 µM
Cc1cc(C)n(CCC(=O)N/N=C/c2ccc(Br)c([N+](=O)[O-])c2)n1	17.2 µM
O=Nc1c(-c2c(O)[nH]c3cc(Br)ccc23)[nH]c2ccccc12	0.942 µM
O=C(c1ccccc1)c1ccc2nc(-c3ccco3)c(-c3ccco3)nc2c1	8.23 µM
COCCNC(=O)c1cc(-c2cccs2)on1	16.9 µM

Structure (SMILES)	AC30
COc1ccc2cc(-c3ccn[nH]3)ccc2c1	4.78 µM
CCC(=O)Nc1sc(C(=O)Nc2ccccc2)c(C)c1C(=O)OC	9.81 µM
Cc1ccc(C(=O)NNc2ncnc3ccccc23)cc1	8.88 µM
O=C(NCCc1ccccc1)c1cc(-c2ccco2)on1	10.7 µM
Nc1ccc2nc3c(=O)n(C4CCCCC4)c(=O)[nH]c3nc2c1	10.5 µM
C(=C\c1nc(-c2cccnc2)no1)/c1ccccc1	4.78 µM
COc1ccc2c(c1)c(/C=N/Nc1nc3ccccc3[nH]1)c(C)n2C	12.1 µM
Nc1nc(-c2cc3ccccc3o2)cs1	4.78 µM
Cc1ccc2cc(NC(=O)c3cccc(F)c3)ccc2n1	10.5 µM
CCOC(=O)C1=C(COC(=O)c2cccc(N(C)C)c2)NC(=O)NC1C (centres undefined)	11.8 µM
O=C(Nc1ccccc1O)c1ccc(NS(=O)(=O)c2cccc3cccnc23)cc1	3.53 µM
O=C(N/N=C/C(Br)=C\c1ccccc1)c1cccs1	13.7 µM
Cc1oc(=O)c(NC(=O)c2cccc(Cl)c2)cc1C(=O)c1ccccc1	7.11 µM
COc1ccc(N=C(C)c2sc3ccccc3c2O)cc1	4.78 µM
COc1cc(C(=O)O/N=C2\C=CC(=O)C(C)=C2)cc(OC)c1OC	16 µM
CCc1ccccc1NC(=O)c1cccc(NC(=O)/C=C/c2ccco2)c1	13.2 µM
COc1ccc(/C=N/Nc2ccccn2)cc1O	11.6 µM
